Test results published in the NIST ThermoML archive (doi:10.1016/j.fluid.2014.06.024).

Assay: molar heat capacity at constant pressure; xn = mol fraction of the nth substance listed
Settings: 101 kPa, Liquid, Small sample (50 mg) DSC

Cc1ccccc1C [1,2-dimethylbenzene] + C1CCOCC1
molar heat capacity at constant pressure [J/K/mol]
Settings	298.15 K	303.15 K	308.15 K
x2 = 0.0918	184.41	186	187.56
x2 = 0.1317	183.03	184.64	186.23
x2 = 0.1765	181.48	183.1	184.72
x2 = 0.2108	180.29	181.92	183.55
x2 = 0.2543	178.76	180.4	182.06
x2 = 0.2876	177.59	179.23	180.91
x2 = 0.3105	176.77	178.42	180.11
x2 = 0.3651	174.81	176.47	178.18
x2 = 0.4187	172.86	174.53	176.26
x2 = 0.4498	171.71	173.38	175.13
x2 = 0.491	170.18	171.85	173.62
x2 = 0.5217	169.03	170.7	172.47
x2 = 0.5518	167.88	169.56	171.34
x2 = 0.5871	166.53	168.2	170
x2 = 0.6218	165.19	166.86	168.66
x2 = 0.6617	163.62	165.29	167.1
x2 = 0.6901	162.5	164.16	165.98
x2 = 0.7219	161.23	162.89	164.71
x2 = 0.7561	159.85	161.5	163.33
x2 = 0.7918	158.39	160.04	161.87
x2 = 0.8231	157.11	158.75	160.58
x2 = 0.8651	155.36	156.99	158.83
x2 = 0.8902	154.31	155.93	157.78
x2 = 0.9234	152.9	154.52	156.37
